Laboratory results reported in patent publication US8034940B2, “Modulators of glucocorticoid receptor, AP-1, and/or NF-κB activity and use thereof” (Bristol-Myers Squibb Company, priority 2006, dated 2011).

target: T1, human full-length glucocorticoid receptor (Homo sapiens, UniProt P04150); experiment: Glucocorticoid Receptor Binding Assay (I), fluorescence polarization, Fluormone GS Red; design: purified human recombinant full-length glucocorticoid receptor; purchased Invitrogen Part #2893; conditions: not given
T1 sequence (P04150 1-777): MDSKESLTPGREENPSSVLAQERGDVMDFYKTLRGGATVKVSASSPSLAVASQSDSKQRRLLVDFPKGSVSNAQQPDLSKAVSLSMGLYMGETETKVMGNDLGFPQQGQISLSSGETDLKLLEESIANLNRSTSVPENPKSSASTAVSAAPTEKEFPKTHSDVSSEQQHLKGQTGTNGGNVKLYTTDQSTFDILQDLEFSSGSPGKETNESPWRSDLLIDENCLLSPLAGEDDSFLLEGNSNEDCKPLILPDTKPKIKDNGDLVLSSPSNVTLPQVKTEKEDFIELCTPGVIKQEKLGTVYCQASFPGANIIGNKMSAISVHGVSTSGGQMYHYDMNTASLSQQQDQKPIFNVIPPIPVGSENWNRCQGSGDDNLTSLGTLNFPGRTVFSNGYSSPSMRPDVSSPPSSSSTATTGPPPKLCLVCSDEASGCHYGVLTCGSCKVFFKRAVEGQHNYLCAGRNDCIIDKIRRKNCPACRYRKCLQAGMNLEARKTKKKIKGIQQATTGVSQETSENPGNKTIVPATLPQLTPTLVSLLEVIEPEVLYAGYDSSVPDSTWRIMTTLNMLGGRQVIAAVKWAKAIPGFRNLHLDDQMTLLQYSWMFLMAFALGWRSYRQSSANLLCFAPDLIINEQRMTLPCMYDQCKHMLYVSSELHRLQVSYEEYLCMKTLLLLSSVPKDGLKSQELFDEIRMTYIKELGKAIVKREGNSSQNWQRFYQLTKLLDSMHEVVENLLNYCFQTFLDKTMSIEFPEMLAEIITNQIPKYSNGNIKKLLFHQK
Method: Glucocorticoid Receptor Binding Assay (I)^a
Briefly, purified human recombinant full-length glucocorticoid receptor (2 nM) was mixed with fluorescently labeled glucocorticoid (1 nM Fluormone GS Red) in the presence or absence of test compound. After two hour incubation at room temperature in the dark, the fluorescence polarization (FP) of the samples was measured. […] Test compounds were analyzed in the concentration range from 8.5E-05 μM to 5 μM.

Ki [nM] | Structure (SMILES)
6.28 | CNC(=O)c1ccc(-c2ccc3c(n2)Oc2ccccc2[C@@H]3C(C)(C)C(=O)Nc2nncs2)cc1F [Example 253]

same assay, conditions: GR Binding Assay (I); read-out: GR (Ki, nM) (GR Binding Assay (I))

Ki [nM] | Structure (SMILES)
78.2 | CC(C)C(=O)N1CC=C(c2ccc3c(n2)Oc2ccccc2[C@@H]3C(C)(C)C(=O)Nc2nncs2)CC1 [Example 409]
18.9 | CC(C)(C(=O)Nc1nncs1)[C@H]1c2ccccc2Oc2nc(-c3ccc(C(=O)N4CCCC(=O)CC4)cc3)ccc21 [Example 322]
9.45 | CC1CCN(C(=O)c2ccc(-c3ccc4c(n3)Oc3ccccc3[C@@H]4C(C)(C)C(=O)Nc3nncs3)cc2)CC1 [Example 268]
110 | CN(C)C(=O)CN(C)C(=O)c1ccc(-c2ccc3c(n2)Oc2ccccc2[C@@H]3C(C)(C)C(=O)Nc2nncs2)cc1 [Example 319]
10.8 | CCCCN(C)C(=O)c1ccc(-c2ccc3c(n2)Oc2ccccc2[C@@H]3C(C)(C)C(=O)Nc2nncs2)cc1 [Example 292]
218 | CC1(C)CCCN(C(=O)c2ccc(-c3ccc4c(n3)Oc3ccccc3[C@@H]4C(C)(C)C(=O)Nc3nncs3)cc2)C1 [Example 271]
126 | CN(CCOC(C)(C)C)C(=O)c1ccc(-c2ccc3c(n2)Oc2ccccc2[C@@H]3C(C)(C)C(=O)Nc2nncs2)cc1 [Example 302]
30.5 | CC(C)(C(=O)Nc1nncs1)[C@H]1c2ccccc2Oc2nc(-c3ccc(C(=O)N4CCC(Cc5ccccc5)CC4)cc3)ccc21 [Example 278]
25.8 | CC(C)(C(=O)Nc1nncs1)[C@H]1c2ccccc2Oc2nc(-c3ccc(C(=O)N4CCNC(=O)CC4)cc3)ccc21 [Example 311]
20.8 | CC(C)(C(=O)Nc1nncs1)[C@H]1c2ccccc2Oc2nc(-c3ccc(C(=O)N4CCC(CO)CC4)cc3)ccc21 [Example 279]
64.1 | CC(=O)NC(C)(C)c1ccc(-c2ccc3c(n2)Oc2ccccc2[C@@H]3C(C)(C)C(=O)Nc2nncs2)cc1 [Example 415]
9.44 | CC(C)NS(=O)(=O)c1ccc(-c2ccc3c(n2)Oc2ccccc2[C@@H]3C(C)(C)C(=O)Nc2nncs2)cc1 [Example 236]
3.04 | CCCN(C)C(=O)c1ccc(-c2ccc3c(n2)Oc2ccccc2[C@@H]3C(C)(C)C(=O)Nc2nncs2)cc1Cl [Example 346]
19.6 | COCCNC(=O)c1ccc(-c2ccc3c(n2)Oc2ccccc2[C@@H]3C(C)(C)C(=O)Nc2nncs2)cc1 [Example 355]
62.6 | CC(C)(C(=O)Nc1nncs1)C1c2ccccc2Oc2cc(C(N)=O)ccc21 (stereo not shown) [Example 113]
4.57 | CN(C)S(=O)(=O)c1ccc(-c2ccc3c(n2)Oc2ccccc2[C@@H]3C(C)(C)C(=O)Nc2nncs2)cc1 [Example 232]
126 | COc1cc(-c2ccc3c(n2)Oc2ccccc2[C@@H]3C(C)(C)C(=O)Nc2nncs2)ccc1C(=O)N1CCCCC1 [Example 265]
53.1 | CN(C)C(=O)c1ccc(-c2ccc3c(n2)Oc2ccccc2C3C(C)(C)C(=O)Nc2ccccn2)cc1 (stereo not shown) [Example 438]
14.6 | CNC(=O)c1ccc(-c2ccc3c(n2)Oc2ccccc2[C@@H]3C(C)(C)C(=O)Nc2nncs2)cc1OC [Example 361]
1.37 | CC(C)(C(=O)Nc1nncs1)[C@H]1c2ccccc2Oc2nc(-c3ccc(S(C)(=O)=O)cc3)ccc21 [Example 214]
176 | CC(C)(C)OC(=O)N1CC=C(c2ccc3c(n2)Oc2ccccc2[C@@H]3C(C)(C)C(=O)Nc2nncs2)CC1 [Example 406]
346 | CC(C)(C(=O)Nc1nncs1)C1c2ccccc2Oc2cc(C(=O)N3CCOCC3)ccc21 (stereo not shown) [Example 116]
22.3 | CC(C)(C(=O)Nc1nnc(C(F)(F)F)s1)[C@H]1c2ccccc2Oc2nc(-c3ccc(C(=O)N4CCCC4)c(F)c3)ccc21 [Example 412]
65.1 | CC(C)(C(=O)Nc1nncs1)C1c2ccccc2Oc2cc(NC(=O)NC3CC3)ccc21 (stereo not shown) [Example 124]
16.1 | CN(Cc1ccccc1)C(=O)c1ccc(-c2ccc3c(n2)Oc2ccccc2[C@@H]3C(C)(C)C(=O)Nc2nncs2)cc1 [Example 255]
76.6 | CC(C)(C(=O)Nc1nncs1)C1c2ccccc2Oc2cc(C(=O)NCc3ccccc3)ccc21 (stereo not shown) [Example 118]
426 | CN(C)C(=O)c1ccc(-c2ccc3c(n2)Oc2ccccc2C3C2(C(=O)Nc3nncs3)CCOCC2)cc1 (stereo not shown) [Example 483]
699 | CN(C)C(=O)CNC(=O)Nc1ccc2c(n1)Oc1ccccc1[C@@H]2C(C)(C)C(=O)Nc1nncs1 [Example 402]
312 | CN(CC(=O)O)C(=O)c1ccc(-c2ccc3c(n2)Oc2ccccc2[C@@H]3C(C)(C)C(=O)Nc2nncs2)cc1 [Example 338]

Second part, the compound before the results:

Structure (SMILES) | Ki [nM]
O=C(c1ccc(-c2ccc3c(n2)Oc2ccccc2C3C2(C(=O)Nc3nncs3)CCC2)cc1)N1CCOCC1 (single isomer, unassigned) [Example 487] | > 1150
CC(C)(C(=O)Nc1nncs1)[C@H]1c2ccccc2Oc2nc(-c3ccc(OC4CCOCC4)c(F)c3)ccc21 [Example 242] | 412
CC(C)(C(=O)Nc1nncs1)[C@H]1c2ccccc2Oc2nc(-c3ccc(OC4CCCC4)c(F)c3)ccc21 [Example 244] | > 1150
CN(C)C(=O)c1ccc(-c2ccc3c(c2)Oc2ccccc2C3C(C)(C)C(=O)Nc2nncs2)s1 (stereo not shown) [Example 104] | 4.5
CC(C)(C(=O)Nc1nncs1)[C@H]1c2ccccc2Oc2nc(-c3ccc(C(=O)N4CCC(O)CC4)cc3)ccc21 [Example 269] | 14.7
CC(C)(C(=O)NC1=NC(=O)CS1)[C@H]1c2ccccc2Oc2nc(-c3ccc(C(=O)N4CCCC4)c(F)c3)ccc21 [Example 413] | 37.7
CN1CCCN(C(=O)c2ccc(-c3ccc4c(n3)Oc3ccccc3[C@@H]4C(C)(C)C(=O)Nc3nncs3)cc2)CC1 [Example 297] | > 1150
CN(C)C(=O)c1ccc(-c2ccc3c(n2)Oc2ccccc2[C@@H]3C(C)(C)C(=O)Nc2nccs2)cc1 [Example 245] | 1.01
CC(C)(N)c1ccc(-c2ccc3c(n2)Oc2ccccc2[C@@H]3C(C)(C)C(=O)Nc2nncs2)cc1 [Example 416] | 94.5
CC(C)(C(=O)Nc1nncs1)[C@H]1c2ccccc2Oc2nc(N3CCN(C(=O)N4CCCC4)CC3)ccc21 [Example 400] | 37.3
Cc1nc(NC(=O)C(C)(C)C2c3ccccc3Oc3nc(-c4ccc(C(=O)N(C)C)cc4)ccc32)sc1C (stereo not shown) [Example 365] | 18.3
Cc1nnc(NC(=O)C(C)(C)C2c3ccccc3Oc3cc(-c4ccc(C(=O)N5CCOCC5)cc4)ncc32)s1 (stereo not shown) [Example 493] | 109
CC(C)(C(=O)Nc1nncs1)[C@H]1c2ccccc2Oc2nc(-c3ccc(S(=O)(=O)NC4CC4)cc3)ccc21 [Example 235] | 4.85
CN(CCc1ccccn1)C(=O)c1ccc(-c2ccc3c(n2)Oc2ccccc2[C@@H]3C(C)(C)C(=O)Nc2nncs2)cc1 [Example 299] | 13.3
COc1ccc(-c2ccc3c(n2)Oc2ccccc2[C@@H]3C(C)(C)C(=O)Nc2nncs2)cn1 [Example 218] | 1.24
CC(C)(C(=O)Nc1nncs1)C1c2ccccc2Oc2cc(NC(=O)Nc3nccs3)ccc21 (stereo not shown) [Example 123] | 17.8
CN(C)C(=O)c1ccc(-c2ccc3c(n2)Oc2ccccc2[C@@H]3C(C)(C)C(=O)Nc2nncs2)s1 [Example 462] | 3.78
CC(C)(C(=O)Nc1nncs1)[C@H]1c2ccccc2Oc2nc(-c3ccc(C(=O)O)c(F)c3)ccc21 [Example 213] | 7.95
CC(C)(C(=O)Nc1nncs1)[C@H]1c2ccccc2Oc2nc(-c3ccc(C(=O)N4CCC[C@H]4C(N)=O)cc3)ccc21 [Example 282] | 13.4
CC(C)(C(=O)Nc1nncs1)[C@H]1c2ccccc2Oc2nc(-c3cc4ccccc4o3)ccc21 [Example 216] | 4.14
CCCNC(=O)c1ccc(-c2ccc3c(n2)Oc2ccccc2[C@@H]3C(C)(C)C(=O)Nc2nncs2)cc1 [Example 358] | 40.5
CN(C(=O)c1ccc(-c2ccc3c(n2)Oc2ccccc2[C@@H]3C(C)(C)C(=O)Nc2nncs2)cc1)C1CCS(=O)(=O)C1 (stereo partly shown) [Example 313] | 4.65
Cc1nnc(NC(=O)C(C)(C)[C@H]2c3ccccc3Oc3nc(-c4cc(F)c(C(=O)N(C)C)c(F)c4)ccc32)s1 [Example 469] | 49.8
CN(C)C(=O)c1ccc(-c2ccc3c(n2)Oc2ccccc2C3C(C)(C)C(=O)NCC(F)(F)F)cc1 (stereo not shown) [Example 367] | 692
CN(C)C(=O)c1ccc(-c2ccc3c(n2)Oc2ccccc2C3C(C)(C)C(=O)NC(C)(C)C)cc1 (stereo not shown) [Example 362] | 805
CN(C)C(=O)c1ccc(-c2ccc3c(n2)Oc2ccccc2C3C(C)(C)C(=O)Nc2ccn(C)n2)cc1 (stereo not shown) [Example 366] | 200
CNC(=O)C1CCN(C(=O)c2ccc(-c3ccc4c(n3)Oc3ccccc3[C@@H]4C(C)(C)C(=O)Nc3nncs3)cc2)CC1 [Example 321] | 30.6
CC(C(=O)Nc1nncs1)C1c2ccccc2Oc2nc(-c3ccc(C(=O)N(C)C)cc3)ccc21 (mixture of isomers) [Example 482] | 45
